Source: the supplement of paper PMC10307832

Legend:
Assay in all cases: relative viability (nuclei count vs DMSO), 5 days (fraction); higher = more cells survive
Midostaurin + Pictilisib = compound: CO[C@@H]1[C@H](N(C)C(=O)c2ccccc2)C[C@H]2O[C@]1(C)n1c3ccccc3c3c4c(c5c6ccccc6n2c5c31)C(=O)NC4 [Midostaurin] + CS(=O)(=O)N1CCN(Cc2cc3nc(-c4cccc5[nH]ncc45)nc(N4CCOCC4)c3s2)CC1 [Pictilisib] (partner 1 µM)
How it was run: (§1)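 The day after seeding in 1536-well plates, lung cancer cell lines were treated by pin tool with a single drug, or with a fixed anchor-drug dose together with five library-drug doses (not always all listed) in √10 steps. After 5 days, a combined fix-and-stain solution (final 0.05% Triton X-100, 1% formaldehyde, 1 ug/ml Hoechst) was added. Nuclei counted on 4× images gave relative viability as treated counts over vehicle counts, reported as the median of duplicate plates.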

[1] = compound: COc1cc(-c2nn([C@H]3CC[C@H](N4CCN(C(C)=O)CC4)CC3)c3ncnc(N)c23)ccc1NC(=O)c1cc2ccccc2n1C + Cc1nc(NC(=O)N2CCC[C@H]2C(N)=O)sc1-c1ccnc(C(C)(C)C(F)(F)F)c1 [Alpelisib] (partner 2 µM)
How it was run: as §1

Midostaurin + Phenformin = compound: CO[C@@H]1[C@H](N(C)C(=O)c2ccccc2)C[C@H]2O[C@]1(C)n1c3ccccc3c3c4c(c5c6ccccc6n2c5c31)C(=O)NC4 [Midostaurin] + N=C(N)NC(=N)NCCc1ccccc1 [Phenformin] (partner 250 µM)
How it was run: as §1

[2] = compound: COc1cc(-c2nn([C@H]3CC[C@H](N4CCN(C(C)=O)CC4)CC3)c3ncnc(N)c23)ccc1NC(=O)c1cc2ccccc2n1C + CCNC(=O)c1noc(-c2cc(C(C)C)c(O)cc2O)c1-c1ccc(CN2CCOCC2)cc1 [Luminespib] (partner 0.01 µM)
How it was run: as §1

Midostaurin + Navitoclax = compound: CO[C@@H]1[C@H](N(C)C(=O)c2ccccc2)C[C@H]2O[C@]1(C)n1c3ccccc3c3c4c(c5c6ccccc6n2c5c31)C(=O)NC4 [Midostaurin] + CC1(C)CCC(c2ccc(Cl)cc2)=C(CN2CCN(c3ccc(C(=O)NS(=O)(=O)c4ccc(N[C@H](CCN5CCOCC5)CSc5ccccc5)c(S(=O)(=O)C(F)(F)F)c4)cc3)CC2)C1 [Navitoclax] (partner 0.5 µM)
How it was run: as §1

Cell Line | relative viability (Midostaurin + Pictilisib; first compound 0.01 µM) | relative viability (Midostaurin + Pictilisib; first compound 0.03162 µM) | relative viability (Midostaurin + Pictilisib; first compound 0.1 µM) | relative viability (Midostaurin + Pictilisib; first compound 0.3162 µM) | relative viability ([1]; first compound 0.0128 µM) | relative viability ([1]; first compound 0.04048 µM) | relative viability ([1]; first compound 0.128 µM) | relative viability ([1]; first compound 1.28 µM) | relative viability (Midostaurin + Phenformin; first compound 0.01 µM) | relative viability (Midostaurin + Phenformin; first compound 0.03162 µM) | relative viability (Midostaurin + Phenformin; first compound 0.1 µM) | relative viability (Midostaurin + Phenformin; first compound 0.3162 µM) | relative viability ([2]; first compound 0.0128 µM) | relative viability ([2]; first compound 0.04048 µM) | relative viability ([2]; first compound 0.128 µM) | relative viability ([2]; first compound 1.28 µM) | relative viability (Midostaurin + Navitoclax; first compound 0.01 µM) | relative viability (Midostaurin + Navitoclax; first compound 0.03162 µM) | relative viability (Midostaurin + Navitoclax; first compound 0.1 µM) | relative viability (Midostaurin + Navitoclax; first compound 0.3162 µM)
NCI-H2126 | 0.541 | 0.441 | 0.499 | 0.523 | 0.757 | 0.858 | 0.746 | 0.536 | 0.519 | 0.467 | 0.565 | 0.564 | 0.947 | 0.957 | 0.844 | 0.648 | 0.92 | 0.826 | 0.824 | 0.903
NCI-H2170 | 0.31 | 0.28 | 0.301 | 0.317 | 0.891 | 0.789 | 0.82 | 0.686 | 0.357 | 0.384 | 0.404 | 0.347 | 0.663 | 0.79 | 0.669 | 0.373 | 0.609 | 0.673 | 0.549 | 0.569
NCI-H2228 | 0.422 | 0.454 | 0.452 | 0.617 | 0.774 | 0.793 | 0.692 | 0.45 | 0.405 | 0.363 | 0.366 | 0.5 | 0.184 | 0.145 | 0.141 | 0.115 | 0.665 | 0.824 | 1.01 | 1.02
NCI-H2347 | 0.48 | 0.493 | 0.648 | 0.634 | 1.05 | 0.948 | 0.924 | 1.03 | 0.254 | 0.384 | 0.337 | 0.248 | 0.619 | – | 0.576 | 0.34 | 0.771 | 0.832 | 0.902 | 0.889
NCI-H2405 | 0.464 | 0.516 | – | 0.379 | 0.83 | 0.419 | 0.722 | 0.272 | 0.415 | 0.441 | 0.377 | 0.491 | 0.862 | 0.529 | 0.56 | 0.251 | 0.921 | 1.04 | – | 0.655
NCI-H3122 | 0.681 | 0.583 | 0.64 | 0.734 | 0.753 | – | 0.772 | 0.537 | 0.376 | 0.369 | 0.372 | 0.363 | 0.0938 | – | 0.0759 | 0.069 | 1.07 | 0.993 | 1.03 | 1.04
PC-3 [JPC-3] | 0.787 | 0.623 | 0.785 | 0.789 | 1.04 | 1.09 | 1.04 | 1.09 | 0.497 | 0.474 | 0.491 | 0.517 | 0.681 | 0.838 | 0.712 | 0.711 | 0.752 | 0.777 | 0.791 | 0.851
PC-14 | 0.674 | 0.61 | 0.633 | 0.75 | 1.01 | 0.951 | 0.902 | 0.852 | 0.603 | 0.717 | 0.522 | 0.52 | 0.196 | 0.138 | 0.232 | 0.121 | 0.973 | 1.01 | 0.985 | 0.965
RERF-LC-KJ | 0.501 | 0.51 | 0.579 | 0.46 | 0.811 | 0.717 | 0.555 | 0.654 | 0.454 | 0.376 | 0.391 | 0.379 | 1.24 | 1.36 | 1.28 | 1.29 | 1.02 | 1.05 | 1.19 | 0.998
SK-LU-1 | 0.602 | 0.676 | 0.56 | 0.572 | 1.15 | 0.917 | 0.821 | 0.441 | 0.521 | 0.54 | 0.49 | 0.421 | 0.213 | 0.187 | 0.203 | 0.141 | 0.703 | 0.704 | 0.808 | 0.886
SK-MES-1 | 0.412 | 0.332 | 0.431 | 0.368 | 0.972 | 0.872 | 0.789 | 0.668 | 0.647 | 0.582 | 0.631 | 0.562 | 0.686 | 0.928 | 0.791 | 0.375 | 1.17 | 1.13 | 1.18 | 1.15
SW 1573 | 0.557 | 0.474 | 0.456 | 0.454 | 0.788 | 0.508 | 0.695 | 0.509 | 0.379 | 0.462 | 0.41 | 0.308 | 0.225 | 0.229 | 0.231 | 0.42 | 0.957 | 1.01 | 0.971 | 1.22
